Assay results reported in patent publication US20040224980A1, “Substituted 1H-quinolin-2-one compounds” (priority 2001, published 2004).

Tested on: phenylquinone-induced writhing reactions
Assay: phenylquinone-induced writhing in mice
Type: in vivo
Conditions: male NMRI mice, 10 mg/kg i.v., phenylquinone i.p. 10 minutes after compound, writhing counted 5-20 minutes after phenylquinone
Method: The investigation into analgesic efficacy was performed by phenylquinone-induced writhing in mice (modified after: I. C. Hendershot, J. Forsaith, J. Pharmacol. Exp. There. 125, 237-240 (1959)). The corresponding literature description is hereby introduced as a reference and is deemed to be part of the disclosure.
Male NMRI mice weighing from 25 to 30 g were used for this purpose. Groups of 10 animals per substance dose received, 10 minutes after intravenous administration of the compounds tested, 0.3 ml/mouse of a 0.02% aqueous solution of phenylquinone (phenylbenzoquinone, Sigma, Deisenhofen; solution prepared with addition of 5% of ethanol and stored in a water bath at 45° C.) administered intraperitoneally. The animals were placed individually in observation cages. A push button counter was used to record the number of pain-induced stretching movements (writhing reactions=straightening of the torso with stretching of the rear extremities) for 5-20 minutes after phenylquinone administration. The control was provided by animals which received only physiological common salt solution.
The compounds were tested at the standard dosage of 10 mg/kg. Inhibition of the writhing reactions by a substance was calculated according to the following formula: [formula]
The in-depth investigation into analgesic efficacy was performed using phenylquinbne-induced writhing in mice, as described above.

Row | Structure (SMILES) | % inhibition of writhing reactions [%]
1 | COc1cccc(C2(O)CCC(NC(=O)Cc3c(O)c4ccc(Cl)cc4[nH]c3=O)CC2CN(C)C)c1 (centres unmarked) [Example 1, 2′-(7-Chloro-4-hydroxy-2-oxo-1,2-dihydroquinolin-3-yl)-N-[3″-(N,N-dimethylaminomethyl)-4″-hydroxy-4″-(m-methoxyphenyl)cyclohexyl]acetamide] | 60
2 | COc1cccc(C2(O)CCC(NC(=O)Cc3c(OC)c4ccc(Cl)cc4[nH]c3=O)CC2CN(C)C)c1 (centres unmarked) [Example 2, 2′-(7-Chloro-4-methoxy-2-oxo-1,2-dihydroquinolin-3-yl)-N-[3″-(N,N-dimethylaminomethyl)-4″-hydroxy-4″-(m-methoxyphenyl)cyclohexyl]acetamide] | 63
